# Data published in US9957273B2, “5-substituted 7- [4-(2-pyridyl)phenylmethylamino] -3-isopropylpyrazolo4,3-D]pyrimidine derivatives, use thereof as medicaments, and pharmaceutical compositions” (USTAV EXPERIMENTALNI BOTANIKY AV CR, V.V.I., priority 2015, dated 2018).
# pEC50: −log10 of the molar value.
# Columns and labels:
# [1] = test system: HL60 (human promyelocytic leukaemia); experiment: MTT cytotoxicity assay, leukemic cell line HL60; format: cell-based; conditions: Homo sapiens, HL-60, 72 h, three days
# Text: (§1) Cytotoxicity of the compounds is the major property determining their antileukemic efficacy in vivo. One of the parameters used, as the basis for cytotoxicity assays, is the metabolic activity of viable cells. For example, a microtiter assay, which uses (3-(4,5-dimethylthiazol-2-yl)-2,5-diphenyltetrazolium bromide (MTT), is widely used to quantitate cell proliferation and cytotoxicity. This assay is widely used in drug screening programs and in chemosensitivity testing. Because only metabolically active living cells reduce MTT to correspond purple formazan dye, these assays detect viable cells exclusively. The quantity of reduced MTT corresponds to the number of vital cells in the culture.
# (§2) The compounds were assayed using the following leukemic cell lines: K562 (human chronic myelogenous leukaemia), HL60 (human promyelocytic leukaemia), CEM (human lymphoblastoid leukaemia), THP1 (human monocytic cell line), MV4; 11 (acute myelocytic leukemia). All cell lines were grown in RPMI medium supplemented with fetal bovine serum and L-glutamine and maintained at 37° C. in a humidified atmosphere with 5% CO2. For cytotoxicity assays, 2000-5000 cells were seeded into each well of 96 well plate, allowed to stabilize for at least 8 h and then tested compounds were added at various concentrations ranging from 100 to 0.01 μM in triplicates. After three days, MTT solution (5 mg/ml; Sigma, St. Louis, USA) was added to cells and medium was replaced with DMSO after five hours. The absorbance was measured at 620 nm by employing a microplate reader. MTT assays were repeated 3 times for each drug application and untreated cells were used as reference.
# [2] = test system: MCF7 (breast adenocarcinoma); experiment: MTT cytotoxicity assay, solid cancer cell line MCF7; format: cell-based; conditions: Homo sapiens, MCF7, 72 h, three days
# Procedure: as §2, with “following” for “following leukemic”, “G361 (malignant melanoma), MCF7 (breast adenocarcinoma), PLC/PRF/5 (liver hepatoma), PANC-1 (pancreatic carcinoma) and HCT116 (colon carcinoma).” for “K562 (human chronic myelogenous leukaemia), HL60 (human promyelocytic leukaemia), CEM (human lymphoblastoid leukaemia), THP1 (human monocytic cell line), MV4; 11 (acute myelocytic leukemia).”, “DMEM” for “RPMI”, “4000-10000” for “2000-5000”, “of a” for “of”, “16” for “8”
# [3] = test system: HUVECs (human umbilical vein endothelial cells); experiment: HUVEC migration (scratch) assay; format: cell-based; conditions: 16 h, read-out: Inhibition of migration (EC50)
# Procedure: To verify that novel compounds have anti-vascularisation properties, we analyzed their influence on the proliferation and migration of HUVECs. HUVECs (human umbilical vein endothelial cells) were purchased from Promocell (Heidelberg, Germany) and cultured in endothelial cell growth medium (ECGM, Promocell, Heidelberg, Germany) containing 10% FCS (Biochrom, Berlin, Germany). Experiments were performed using cells at passage 3.
# For migration assay, confluent HUVECs were scratched with a pipette tip and immediately treated with either starvation medium M199 (serum-free, negative control; PAN Biotech) or full endothelial cell growth medium (positive control). After 16 h, cells were fixed with 3% formaldehyde and images were taken using the TILLvisON system (Lochham, Germany) connected to an Axiovert 200 microscope (Zeiss, Germany). Evaluation of pictures was made by S.CO LifeScience (Garching, Germany). Migration was quantified as the ratio of the area covered with cells and the area of the cell free wound.
# [4] = test system: CEM (human lymphoblastoid leukaemia); experiment: MTT cytotoxicity assay, leukemic cell line CEM; format: cell-based; conditions: Homo sapiens, 72 h, three days
# Text: as §1, §2
# HCT116 (colon carcinoma) = experiment: MTT cytotoxicity assay, solid cancer cell line HCT116; format: cell-based; conditions: Homo sapiens, HCT-116, 72 h, three days
# Procedure: as §2, with “following” for “following leukemic”, “G361 (malignant melanoma), MCF7 (breast adenocarcinoma), PLC/PRF/5 (liver hepatoma), PANC-1 (pancreatic carcinoma) and HCT116 (colon carcinoma).” for “K562 (human chronic myelogenous leukaemia), HL60 (human promyelocytic leukaemia), CEM (human lymphoblastoid leukaemia), THP1 (human monocytic cell line), MV4; 11 (acute myelocytic leukemia).”, “DMEM” for “RPMI”, “4000-10000” for “2000-5000”, “of a” for “of”, “16” for “8”
# [5] = test system: caspases 3 and 7 in HCT116 cells; experiment: Caspase-3/7 activity assay in HCT116 cells; format: cell-based; conditions: 24 h, FIG. 3
# Procedure: Measurement of proapoptotic properties of new compounds was based on quantification of enzymatic activities of caspases-3/7. Activity of cellular caspase-3/7 was measured according to Carrasco et al., 2003, BioTechniques, 34(5): 1064-67. Briefly, the cells were incubated in a 96-well plate overnight. Next day, the compounds in appropriate concentrations were added and cells were incubated for 24 hours. After incubation, 3× caspase-3/7 assay buffer (150 mM HEPES pH 7.4, 450 mM NaCl, 150 mM KCl, 30 mM MgCl2, 1.2 mM EGTA, 1.5% Nonidet P40, 0.3% CHAPS, 30% sucrose, 30 mM DTT, 3 mM PMSF) with 150 μM Ac-DEVD-AMC as a substrate (Sigma-Aldrich) was added to the wells and plates were incubated at 37° C. […]. The caspase activity was measured using Fluoroskan Ascent microplate reader (Labsystems) at 346 nm/442 nm (excitation/emission).
# [6] = test system: PLC/PRF/5 (liver hepatoma); experiment: MTT cytotoxicity assay, solid cancer cell line PLC/PRF/5; format: cell-based; conditions: Homo sapiens, PLC-PRF-5, 72 h, three days
# Procedure: as §2, with “following” for “following leukemic”, “G361 (malignant melanoma), MCF7 (breast adenocarcinoma), PLC/PRF/5 (liver hepatoma), PANC-1 (pancreatic carcinoma) and HCT116 (colon carcinoma).” for “K562 (human chronic myelogenous leukaemia), HL60 (human promyelocytic leukaemia), CEM (human lymphoblastoid leukaemia), THP1 (human monocytic cell line), MV4; 11 (acute myelocytic leukemia).”, “DMEM” for “RPMI”, “4000-10000” for “2000-5000”, “of a” for “of”, “16” for “8”
# [7] = test system: THP1 (human monocytic cell line); experiment: MTT cytotoxicity assay, leukemic cell line THP1; format: cell-based; conditions: Homo sapiens, THP-1, 72 h, three days
# Text: as §1, §2
# CDK5/p35 = biological target: T1, CDK5/p35 (Homo sapiens, UniProt Q00535); experiment: CDK5/p35 kinase inhibition (33P-ATP, histone H1); format: biochemical; conditions: 0.15 μM ATP
# T1 construct: purchased ProQinase GmbH
# T1 sequence (Q00535 whole entry): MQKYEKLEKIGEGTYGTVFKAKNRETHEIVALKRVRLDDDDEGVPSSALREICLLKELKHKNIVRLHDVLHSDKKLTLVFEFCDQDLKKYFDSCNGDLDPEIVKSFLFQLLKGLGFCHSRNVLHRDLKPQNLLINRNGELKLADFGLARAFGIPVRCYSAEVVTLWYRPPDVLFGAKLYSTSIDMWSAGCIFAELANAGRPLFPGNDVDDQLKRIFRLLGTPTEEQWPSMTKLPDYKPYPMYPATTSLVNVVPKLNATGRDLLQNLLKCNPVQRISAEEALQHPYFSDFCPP
# T1 sequence (Q15078 whole entry partner): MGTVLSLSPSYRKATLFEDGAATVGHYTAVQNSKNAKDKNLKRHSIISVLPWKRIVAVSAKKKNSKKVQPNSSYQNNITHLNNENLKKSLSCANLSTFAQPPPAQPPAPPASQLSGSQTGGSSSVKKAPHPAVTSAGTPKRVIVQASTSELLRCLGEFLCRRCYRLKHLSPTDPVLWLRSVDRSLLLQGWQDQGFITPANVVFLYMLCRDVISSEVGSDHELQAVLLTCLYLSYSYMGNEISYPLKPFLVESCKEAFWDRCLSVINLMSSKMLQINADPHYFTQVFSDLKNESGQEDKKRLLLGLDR
# Procedure: CDK2/Cyclin E kinase was produced in Sf9 insect cells via baculoviral infection and purified on a NiNTA column (Qiagen). […] CDK5/p35 was purchased from ProQinase GmbH.
# The reactions were stopped by adding 5 μL of 3% aq H3PO4. Aliquots were spotted onto P-81 phosphocellulose (Whatman), washed 3× with 0.5% aq H3PO4 and finally air-dried.
smiles,measurement,setting,value
CC(C)c1[nH]nc2c(NCc3ccc(-c4ccccn4)cc3)nc(NCC(O)CN)nc12 (stereo not drawn) [Compound 45],IC50,[1],0.62 µM
same,IC50,[2],0.31 µM
same,pEC50,[3],6.30
same,IC50,[4],0.54 µM
same,IC50,HCT116 (colon carcinoma),0.37 µM
same,caspase-3/7 activity in HCT116 cells,[5],potent dose-dependent activation of the caspases in nanomolar concentrations
same,IC50,[6],0.2 µM
same,IC50,[7],0.49 µM
same,IC50,CDK5/p35,0.017 µM
